Source: patent US12594261B2, “Use of heterocyclic derivatives with cardiomyocyte proliferation activity for treatment of heart diseases” (SHANGHAI EAST HOSPITAL (EAST HOSPITAL, TONGJI UNIVERSITY …, priority 2019, dated 2026)

System: neonatal rat ventricular myocytes (NRVMs)
Assay: Myocyte proliferation assay (EdU) in neonatal rat ventricular myocytes
Format: cell-based
Conditions: Rattus norvegicus, Ventricular myocyte, growth relative to blank myocyte growth without compound added; for activation at 1 µM: 1 uM compound; for activation at 3 µM: 3 uM compound; for activation at 10 µM: 10 uM compound
Protocol: 1. Isolation of and Culture Neonatal Rat Ventricular Myocytes (NRVMs)
Ventricles from neonatal rats were separated from the atria, cut into small pieces (about 2×2 mm^2) and then dissociated in Ca^2+-free HBSS containing 0.125 mg ml-1 trypsin (Gibco), 10 μg ml-1 DNase II (Sigma) and 0.1 mg ml-1 collagenase type IV (Sigma). The digestion was carried out under constant stirring at 37° C. for 5 min. The supernatant was collected with FBS (Gibco) after each digestion period. After digestion, the collected supernatant was centrifuged at 1000 g for 10 min at room temperature, and then cell pellets were resuspended in DMEM (Gibco) supplemented with 10% FBS and with 100 uM 5-bromo-2′-deoxyuridine (Sigma). The resuspended cells were passed through a cell strainer ([…], BD Falcon) and seeded onto 100-mm plastic dishes for 2 h at 37° C. in a 5% CO2 to remove fibroblasts, the supernatant was then collected and plated onto 1% gelatin (Sigma)-coated dishes. 24 h after the seeding, the medium was changed to DMEM (Gibco) containing 2% FBS (Gibco), 1% insulin-transferrin-selenium (ITS; Gibco), 1% Penicillin-Streptomycin (Gibco). After 24 hours of low serum culture, remove the medium with DMEM (Gibco) containing 6% FBS (Gibco), 1% insulin-transferrin-selenium (ITS; Gibco), 1% Penicillin-Streptomycin (Gibco), different concentrations of compounds (the compounds were pre-diluted in the medium and the drug concentration was 10 uM, 3 uM, 1 uM, fully mixed). After 36 h add Edu substrate (Invitrogen) according to the manufacturer's guidelines, and then after 12 h cell can be used.
2.1. Immobilization: Remove the medium and fix the cells with […] in 200 ul (whichever is covered) for 15 min and wash the cells twice with 500 ul of PBS for 5 min each time.
2.2. Broken membrane: Add 200 ul of 0.3% Triton-X 100 (diluted in PBS) to each well, incubate for 10-15 min at room temperature (the time should not be too long), and wash the cells twice with 500 ul of PBS for 5 min each time.
2.3. Blocking: Add 200 ul of 10% normal goat serum (diluted with 0.1% PBST) to each well, incubate for 1 h at room temperature, and wash twice with 500 ul of 0.1% PBST for 5 min each time.
2.4. Primary antibody: dilute the primary antibody (abcam, ab8295) to blocking solution at a ratio of 1:200, add 100 ul per well, incubate for 1 h at room temperature (may be slightly longer than 2-3 h), wash the cells twice with 500 ul 0.1% PBST for 5 min each time.
2.5. Secondary antibody: Dilute the fluorescently labeled secondary antibody (abcam, ab150117) into blocking solution at a ratio of 1:200, add 100 ul per well, incubate for 1 h at room temperature (the time should not be too long), wash the cells twice with 0.1% PBST for 5 min each time, pay attention to the whole process. Protected from light.
2.6. Edu staining (Invitrogen C10338)
2.6.1 Prepare Click-iT® reaction cocktail according to Table 3. It was important to add the ingredients in the order listed in the table; otherwise, the reaction would not proceed optimally. Use the Click-iT® reaction cocktail within 15 minutes of preparation.
2.6.2 Add 0.1 mL of Click-iT® reaction cocktail to each well containing a coverslip. Rock the plate briefly to ensure that the reaction cocktail is distributed evenly over the coverslip.
2.6.3 Incubate the plate for 30 minutes at room temperature, protected from light.
2.6.4 Remove the reaction cocktail, then wash the cells twice with 0.1% PBST for 5 min each time.
2.7. DAPI staining: DAPI stain was diluted to PBS at a ratio of 1:1000, 100 ul per well, incubated for 30 min at room temperature, and the cells were washed twice with PBS for 5 min each.
We used Molecular Devices' Image Xpress Micro Confocal for high-throughput photo and data analysis.

Structure (SMILES) | activation at 1 µM | activation at 3 µM | activation at 10 µM
O=C1NC(NCCN2CCOCC2)=N/C1=C\c1ccc2c(c1)OCO2 [TJU-B004, (4Z)-4-[(2H-1,3-benzodioxol-5-yl)methylidene]-2-{[2-(morpholin-4-yl)ethyl]amino}-4,5-dihydro-1H-imidazol-5-one] | < 10% | 10 to 50% | > 50%
O=C1NC(Nc2ccccc2)=NC1Cc1ccc2c(c1)OCO2 (centres unmarked) [TJU-B005, 4-[(2H-1,3-benzodioxol-5-yl)methyl]-2-(phenylamino)-4,5-dihydro-1H-imidazol-5-one] | 10 to 50% | < 10% | > 50%
COc1ccc(NC2=N/C(=C\c3ccc4c(c3)OCCO4)C(=O)N2)cc1 [TJU-B006, (4Z)-4-[(2,3-dihydro-1,4-benzodioxin-6-yl)methylidene]-2-[(4-methoxyphenyl)amino]-4,5-dihydro-1H-imidazol-5-one] | 10 to 50% | 10 to 50% | > 50%
O=C1NC(Nc2ccccc2)=N/C1=C\c1ccc2c(c1)OCCO2 [TJU-B007, (4Z)-4-[(2,3-dihydro-1,4-benzodioxin-6-yl)methylidene]-2-(phenylamino)-4,5-dihydro-1H-imidazol-5-one] | < 10% | 10 to 50% | > 50%
COc1ccc(NC2=N/C(=C\c3ccc4c(c3)OCO4)C(=O)N2)cc1 [TJU-B009, (4Z)-4-[(2H-1,3-benzodioxol-5-yl)methylidene]-2-[(4-methoxyphenyl)amino]-4,5-dihydro-1H-imidazol-5-one] | 10 to 50% | 10 to 50% | > 50%
O=C1NC(Nc2ccccc2)=N/C1=C\c1cc2c(cc1Cl)OCO2 [TJU-B011, (4Z)-4-[(6-chloro-2H-1,3-benzodioxol-5-yl)methylidene]-2-(phenylamino)-4,5-dihydro-1H-imidazol-5-one] | 10 to 50% | 10 to 50% | > 50%
C/C(=C1/N=C(Nc2ccccc2)NC1=O)c1ccc2c(c1)OCO2 [TJU-B013, (4Z)-4-[1-(2H-1,3-benzodioxol-5-yl)ethylidene]-2-(phenylamino)-4,5-dihydro-1H-imidazol-5-one] | < 10% | 10 to 50% | > 50%
CN1C(=O)/C(=C/c2ccc3c(c2)OCO3)N=C1Nc1ccccc1 [TJU-B014, (4Z)-4-[(2H-1,3-benzodioxol-5-yl)methylidene]-1-methyl-2-(phenylamino)-4,5-dihydro-1H-imidazol-5-one] | < 10% | 10 to 50% | > 50%
CC(C)NC1=N/C(=C\c2ccc3c(c2)OCO3)C(=O)N1C [TJU-B016, (4Z)-4-[(2H-1,3-benzodioxol-5-yl)methylidene]-1-methyl-2-[(propan-2-yl)amino]-4,5-dihydro-1H-imidazol-5-one] | < 10% | 10 to 50% | > 50%
O=C1NC(NCc2ccccc2)=N/C1=C\c1ccc2c(c1)OCO2 [TJU-B019, (4Z)-4-[(2H-1,3-benzodioxol-5-yl)methylidene]-2-(benzylamino)-4,5-dihydro-1H-imidazol-5-one] | < 10% | < 10% | > 50%
Nc1ccc(NC2=N/C(=C\c3ccc4c(c3)OCO4)C(=O)N2)cc1 [TJU-B021, (4Z)-2-[(4-aminophenyl)amino]-4-[(2H-1,3-benzodioxol-5-yl)methylidene]-4,5-dihydro-1H-imidazol-5-one] | < 10% | < 10% | > 50%
O=C1NC(NCCN2CCOCC2)=N/C1=C\c1ccc2c(c1)OCCO2 [TJU-B026, (4Z)-4-[(2,3-dihydro-1,4-benzodioxin-6-yl)methylidene]-2-{[2-(morpholin-4-yl)ethyl]amino}-4,5-dihydro-1H-imidazol-5-one] | 10 to 50% | < 10% | > 50%
O=C1NC(Nc2ccc3c(c2)OCO3)=N/C1=C\c1ccc2c(c1)OCO2 [TJU-B027, (4Z)-2-[(2H-1,3-benzodioxol-5-yl)amino]-4-[(2H-1,3-benzodioxol-5-yl)methylidene]-4,5-dihydro-1H-imidazol-5-one] | < 10% | < 10% | 10 to 50%
O=C1NC(Nc2ccccc2)=N/C1=C\c1ccc2c(c1)OC(F)(F)O2 [TJU-B028, (4Z)-4-[(2,2-difluoro-2H-1,3-benzodioxol-5-yl)methylidene]-2-(phenylamino)-4,5-dihydro-1H-imidazol-5-one] | < 10% | < 10% | 10 to 50%
O=C1NC(NCC2CC2)=N/C1=C\c1ccc2c(c1)OCO2 [TJU-B029, (4Z)-4-[(2H-1,3-benzodioxol-5-yl)methylidene]-2-[(cyclopropylmethyl)amino]-4,5-dihydro-1H-imidazol-5-one] | < 10% | < 10% | 10 to 50%
O=C1NC(Nc2cccnc2)=N/C1=C\c1ccc2c(c1)OCO2 [TJU-B031, (4Z)-4-[(2H-1,3-benzodioxol-5-yl)methylidene]-2-[(pyridin-3-yl)amino]-4,5-dihydro-1H-imidazol-5-one] | < 10% | < 10% | 10 to 50%
CNC1=N/C(=C\c2ccc3c(c2)OCO3)C(=O)N1 [TJU-B033, (4Z)-4-[(2H-1,3-benzodioxol-5-yl)methylidene]-2-(methylamino)-4,5-dihydro-1H-imidazol-5-one] | < 10% | < 10% | 10 to 50%
NC1=N/C(=C\c2ccc3c(c2)OCO3)C(=O)N1 [TJU-B034, (4Z)-2-amino-4-[(2H-1,3-benzodioxol-5-yl)methylidene]-4,5-dihydro-1H-imidazol-5-one] | < 10% | < 10% | 10 to 50%
COc1cccc(/C=C2\N=C(N)N(C)C2=O)c1 [TJU-B036, (4Z)-2-amino-4-[(3-methoxyphenyl)methylidene]-1-methyl-4,5-dihydro-1H-imidazol-5-one] | 10 to 50% | < 10% | 10 to 50%
CC(C)NC1=N/C(=C\c2ccc3c(c2)OCO3)C(=O)N1 [TJU-B038, (4Z)-4-[(2H-1,3-benzodioxol-5-yl)methylidene]-2-[(propan-2-yl)amino]-4,5-dihydro-1H-imidazol-5-one] | 10 to 50% | 10 to 50% | 10 to 50%
O=C1NC(c2ccccc2)=N/C1=C\c1ccc2c(c1)OCO2 [TJU-B039, (4Z)-4-[(2H-1,3-benzodioxol-5-yl)methylidene]-2-phenyl-4,5-dihydro-1H-imidazol-5-one] | < 10% | – | 10 to 50%
CCNC1=N/C(=C\c2ccc3c(c2)OCO3)C(=O)N1 [TJU-B040, (4Z)-4-[(2H-1,3-benzodioxol-5-yl)methylidene]-2-(ethylamino)-4,5-dihydro-1H-imidazol-5-one] | 10 to 50% | 10 to 50% | 10 to 50%
O=C1NC(Nc2ccccc2)=N/C1=C\c1ccc2c(c1)OCO2 [TJU-B043, (4Z)-4-[(2H-1,3-benzodioxol-5-yl)methylidene]-2-(phenylamino)-4,5-dihydro-1H-imidazol-5-one] | 10 to 50% | 10 to 50% | 10 to 50%
